Data from ChEMBL document CHEMBL1201862, “PubChem BioAssay data set” (2004).
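Protocol summary: plate cells (96-well), add compound at 5 concentrations, incubate 48 h, interpolate endpoints linearly. The concentration for 50% growth inhibition is given as GI50.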 Activity calls are given as the source filed them. Rule as the data show it: active = GI50 up to about 1.1 µM and inactive = higher.

Columns and labels:
Assay in all cases: NCI-60 cell line screen, 48 h
SNB-19 = tested on: SNB-19
SR = tested on: SR
CAKI-1 = tested on: CAKI-1
786-0 = tested on: 786-0
RPMI-8226 = tested on: RPMI-8226
COLO 205 = tested on: COLO 205
A549 = tested on: A549
HCT-116 = tested on: HCT-116
LOX IMVI = tested on: LOX IMVI
HT-29 = tested on: HT-29
MDA-MB-231 = tested on: MDA-MB-231
UACC-257 = tested on: UACC-257
Malme-3M = tested on: Malme-3M
MOLT-4 = tested on: MOLT-4
SW-620 = tested on: SW-620
SK-MEL-2 = tested on: SK-MEL-2
MDA-MB-435 = tested on: MDA-MB-435
HCT-15 = tested on: HCT-15
NCI-H460 = tested on: NCI-H460
RXF 393 = tested on: RXF 393

Row | Structure (SMILES) | GI50 (SNB-19) | GI50 (SR) | GI50 (CAKI-1) | GI50 (786-0) | GI50 (RPMI-8226) | GI50 (COLO 205) | GI50 (A549) | GI50 (HCT-116) | GI50 (LOX IMVI) | GI50 (HT-29) | GI50 (MDA-MB-231) | GI50 (UACC-257) | GI50 (Malme-3M) | GI50 (MOLT-4) | GI50 (SW-620) | GI50 (SK-MEL-2) | GI50 (MDA-MB-435) | GI50 (HCT-15) | GI50 (NCI-H460) | GI50 (RXF 393)
1 | CC(CCOc1ccc2ccc(=O)oc2c1)C1=CC(=O)C(C)(C)O1 (centres undefined) | 3.09 µM (inactive) | 0.612 µM (active) | 2.86 µM (inactive) | 2.2 µM (inactive) | 1.95 µM (inactive) | 2.42 µM (inactive) | 2.87 µM (inactive) | 2.64 µM (inactive) | 2.23 µM (inactive) | 3.3 µM (inactive) | 3.15 µM (inactive) | 6.73 µM (inactive) | 3.04 µM (inactive) | 2.12 µM (inactive) | 1.92 µM (inactive) | 3.37 µM (inactive) | 2.56 µM (inactive) | 1.71 µM | 1.86 µM (inactive) | –
2 | CCNC(=S)/N=c1\sc(NCC)nc2sc3c(c12)CCN(N1CCc2c(sc4nc(NCC)s/c(=N\C(=S)NCC)c24)C1)C3 | 74 µM (inactive) | 30.5 µM (inactive) | > 100 µM (inactive) | 26.6 µM (inactive) | – | 57.4 µM (inactive) | 82.4 µM (inactive) | 19.5 µM (inactive) | 26 µM (inactive) | 41.1 µM (inactive) | 29.5 µM (inactive) | > 100 µM (inactive) | > 100 µM (inactive) | 34.1 µM (inactive) | 34.7 µM (inactive) | > 100 µM (inactive) | 97.5 µM (inactive) | > 100 µM | 76.6 µM (inactive) | 8.93 µM (inactive)
3 | CC(C)=CCC(O)[C@](C)(O)[C@H]1[C@H](O)C[C@@]2(C)[C@@H]3CCc4cc(O)c(OC5OC(CO)C(O)C(O)C5O)cc4C3(C)C(=O)C[C@]12C (some centres undefined) | > 100 µM (inactive) | > 100 µM (inactive) | > 100 µM (inactive) | > 100 µM (inactive) | – | > 100 µM (inactive) | > 100 µM (inactive) | > 100 µM (inactive) | – | > 100 µM (inactive) | > 100 µM (inactive) | > 100 µM (inactive) | > 100 µM (inactive) | > 100 µM (inactive) | > 100 µM (inactive) | > 100 µM (inactive) | > 100 µM (inactive) | > 100 µM | > 100 µM (inactive) | > 100 µM (inactive)
4 | COc1cc(=O)oc(/C=C/C=C/C=C/C(C)=C\C2(C)OC(C)C(C)(O)C2O)c1C (centres undefined) | > 100 µM (inactive) | > 100 µM (inactive) | > 100 µM (inactive) | > 100 µM (inactive) | > 100 µM (inactive) | > 100 µM (inactive) | > 100 µM (inactive) | > 100 µM (inactive) | > 100 µM (inactive) | > 100 µM (inactive) | > 100 µM (inactive) | > 100 µM (inactive) | – | > 100 µM (inactive) | > 100 µM (inactive) | > 100 µM (inactive) | > 100 µM (inactive) | > 100 µM | > 100 µM (inactive) | –
5 | O=c1[nH]c2ccc(C(F)(F)F)cc2nc1Cc1ccccc1 | 53 µM (inactive) | > 100 µM (inactive) | 49.2 µM (inactive) | 35.5 µM (inactive) | 39.2 µM (inactive) | 18.1 µM (inactive) | – | 37.2 µM (inactive) | 40 µM (inactive) | 25.4 µM (inactive) | 37.8 µM (inactive) | 67.1 µM (inactive) | – | 16.2 µM (inactive) | 39.4 µM (inactive) | 24.7 µM (inactive) | 28.4 µM (inactive) | 36.1 µM | 27.9 µM (inactive) | 27.2 µM (inactive)
6 | NC1=C(c2nc(-c3ccccc3)cs2)C(c2ccco2)c2c(c3ccccc3oc2=O)O1 (centres undefined) | > 100 µM (inactive) | > 100 µM (inactive) | > 100 µM (inactive) | > 100 µM (inactive) | – | > 100 µM (inactive) | > 100 µM (inactive) | > 100 µM (inactive) | > 100 µM (inactive) | > 100 µM (inactive) | > 100 µM (inactive) | > 100 µM (inactive) | > 100 µM (inactive) | – | > 100 µM (inactive) | > 100 µM (inactive) | > 100 µM (inactive) | > 100 µM | > 100 µM (inactive) | 40.5 µM (inactive)
7 | COc1ccc(-c2c(C(C)=O)c(C)n(C3OC(COC(C)=O)C(OC(C)=O)C(OC(C)=O)C3OC(C)=O)c(=S)c2C#N)cc1 (centres undefined) | 89.9 µM (inactive) | > 100 µM (inactive) | 28.9 µM (inactive) | 62.1 µM (inactive) | – | > 100 µM (inactive) | 66.2 µM (inactive) | 72.1 µM (inactive) | 21.9 µM (inactive) | > 100 µM (inactive) | 29.1 µM (inactive) | > 100 µM (inactive) | > 100 µM (inactive) | 43 µM (inactive) | 72.8 µM (inactive) | 29.9 µM (inactive) | > 100 µM (inactive) | > 100 µM | 81.5 µM (inactive) | 80.7 µM (inactive)
8 | N#CCN1c2ccccc2CCC1Cl (centres undefined) | > 10 µM (inactive) | > 10 µM (inactive) | > 10 µM (inactive) | > 10 µM (inactive) | > 10 µM (inactive) | > 10 µM (inactive) | > 10 µM (inactive) | > 10 µM (inactive) | > 10 µM (inactive) | > 10 µM (inactive) | > 10 µM (inactive) | > 10 µM (inactive) | > 10 µM (inactive) | > 10 µM (inactive) | > 10 µM (inactive) | – | > 10 µM (inactive) | > 10 µM | > 10 µM (inactive) | –
9 | O=C(O)Cn1ncn(NC(=O)Cc2ccccc2)c1=S | > 10 µM (inactive) | > 10 µM (inactive) | > 10 µM (inactive) | > 10 µM (inactive) | > 10 µM (inactive) | > 10 µM (inactive) | > 10 µM (inactive) | > 10 µM (inactive) | > 10 µM (inactive) | > 10 µM (inactive) | > 10 µM (inactive) | > 10 µM (inactive) | > 10 µM (inactive) | > 10 µM (inactive) | > 10 µM (inactive) | – | > 10 µM (inactive) | > 10 µM | > 10 µM (inactive) | –
10 | COc1ccc2nc3ccccc3c(NCCCCCN(CCCl)CCCl)c2c1 | 0.0427 µM (active) | < 0.01 µM (active) | 0.0542 µM (active) | 0.0218 µM (active) | 0.0317 µM (active) | < 0.0301 µM (active) | < 0.0308 µM (active) | 0.0295 µM (active) | 0.0294 µM (active) | 0.0354 µM (active) | 0.257 µM (active) | 1.03 µM (active) | 0.524 µM (active) | 0.0165 µM (active) | 0.0227 µM (active) | 0.194 µM (active) | 0.17 µM (active) | 0.0619 µM | < 0.01 µM (active) | –
11 | O=c1c(-c2ccc(Cl)cc2)nnc2n(Cc3ccccc3)c3ccccc3n12 | 17.7 µM (inactive) | > 100 µM (inactive) | 16.4 µM (inactive) | 14.9 µM (inactive) | – | > 100 µM (inactive) | 25.5 µM (inactive) | 50.5 µM (inactive) | 82.6 µM (inactive) | 52.6 µM (inactive) | 20 µM (inactive) | 51.3 µM (inactive) | 39.8 µM (inactive) | 66.7 µM (inactive) | > 100 µM (inactive) | 44.2 µM (inactive) | 4.28 µM (inactive) | > 100 µM | 33.3 µM (inactive) | 13.2 µM (inactive)
12 | CC1(C)OC[C@H](COCOP2(=O)Oc3ccc4ccccc4c3-c3c(ccc4ccccc34)O2)O1 | 19.1 µM (inactive) | 16.7 µM (inactive) | – | 35.5 µM (inactive) | – | – | 21.5 µM (inactive) | 15 µM (inactive) | – | 16.4 µM (inactive) | 15.7 µM (inactive) | – | 21.3 µM (inactive) | 15 µM (inactive) | 15.3 µM (inactive) | – | 13.7 µM (inactive) | 15.3 µM | 16.7 µM (inactive) | > 10 µM (inactive)
13 | O=c1[nH]c2cc([N+](=O)[O-])c(N/N=C/c3ccc(Cl)cc3Cl)c([N+](=O)[O-])c2[nH]1 | 64 µM (inactive) | – | > 100 µM (inactive) | 32.1 µM (inactive) | 33.8 µM (inactive) | > 100 µM (inactive) | 37.9 µM (inactive) | 25.7 µM (inactive) | 18.5 µM (inactive) | > 100 µM (inactive) | 13.1 µM (inactive) | > 100 µM (inactive) | 31.2 µM (inactive) | 32.9 µM (inactive) | 26.7 µM (inactive) | > 100 µM (inactive) | 5.21 µM (inactive) | 40.3 µM | 83 µM (inactive) | 18.2 µM (inactive)
14 | CC(=O)Oc1ccc(-c2cc3ccccc3oc2=O)cc1OC(C)=O | 31.6 µM (inactive) | 8.63 µM (inactive) | – | 21.7 µM (inactive) | 12.7 µM (inactive) | 43.5 µM (inactive) | 14.8 µM (inactive) | 34.7 µM (inactive) | 30.5 µM (inactive) | 36 µM (inactive) | 28.6 µM (inactive) | 24.4 µM (inactive) | 51.4 µM (inactive) | 3.47 µM (inactive) | 33.3 µM (inactive) | 38.5 µM (inactive) | 27.1 µM (inactive) | 10.7 µM | 22.4 µM (inactive) | –
15 | COc1cc(N(C)C)c(OC)cc1C=C1C=CC=C1 | > 100 µM (inactive) | 61.2 µM (inactive) | – | > 100 µM (inactive) | – | – | > 100 µM (inactive) | 82.4 µM (inactive) | – | 60.4 µM (inactive) | > 100 µM (inactive) | – | > 100 µM (inactive) | 38.6 µM (inactive) | > 100 µM (inactive) | > 100 µM (inactive) | 43.1 µM (inactive) | > 10 µM | > 100 µM (inactive) | > 100 µM (inactive)
